Experiments:
Assay type in all cases: in vivo
[1] = test system: Alopecurus myosuroides (ALOMY); experiment: Example A pre-emergence herbicidal activity, glasshouse pot test; settings: 480 h, rate 500 g/ha, evaluated 20 days later, 100=total damage to plant, 0=no damage to plant
Procedure: (§1) Seeds of a variety of test species were sown in standard soil in pots. After cultivation for one day (pre-emergence) or after 10 days cultivation (post-emergence) under controlled conditions in a glasshouse, the plants were sprayed with an aqueous spray solution derived from the formulation of the technical active ingredient in 0.6 ml acetone and 45 ml formulation solution containing 10.6% Emulsogen EL (Registry number 61791-12-6), 42.2% N-methylpyrrolidone, 42.2% dipropylene glycol monomethyl ether (Registry number 34590-94-8) and 0.2% X-77 (Registry number 11097-66-8). The test plants were then grown in a greenhouse under optimum conditions until, 15 days later for post-emergence and 20 days for pre-emergence, the test was evaluated (100=total damage to plant; 0=no damage to plant). Alopecurus myosuroides (ALOMY), Avena fatua (AVEFA), Lolium perenne (LOLPE), Setaria faberi (SETFA), Digitaria sanguinalis (DIGSA), Echinochloa crus-galli (ECHCG) Pre-Emergence Activity

Avena fatua (AVEFA) [2] = experiment: as above; settings: 480 h, rate 500 g/ha, evaluated 20 days later, 100=total damage to plant, 0=no damage to plant
Procedure: as §1

[3] = test system: Digitaria sanguinalis (DIGSA); experiment: as above; settings: 480 h, rate 500 g/ha, evaluated 20 days later, 100=total damage to plant, 0=no damage to plant
Procedure: as §1

[4] = test system: Echinochloa crus-galli (ECHCG); experiment: as above; settings: 480 h, rate 500 g/ha, evaluated 20 days later, 100=total damage to plant, 0=no damage to plant
Procedure: as §1

Lolium perenne (LOLPE) [5] = experiment: as above; settings: 480 h, rate 500 g/ha, evaluated 20 days later, 100=total damage to plant, 0=no damage to plant
Procedure: as §1

Setaria faberi (SETFA) [6] = experiment: as above; settings: 480 h, rate 500 g/ha, evaluated 20 days later, 100=total damage to plant, 0=no damage to plant
Procedure: as §1

[7] = test system: Alopecurus myosuroides (ALOMY); experiment: Example A post-emergence herbicidal activity, glasshouse pot test; settings: 360 h, rate 500 g/ha, evaluated 15 days after spraying, read-out: herbicidal damage ALOMY (100=total damage to plant; 0=no damage to plant)
Procedure: as §1, with “Post Emergency” for “Pre-Emergence”

Avena fatua (AVEFA) [8] = experiment: as above; settings: 360 h, rate 500 g/ha, evaluated 15 days after spraying, read-out: herbicidal damage AVEFA (100=total damage to plant; 0=no damage to plant)
Procedure: as §1, with “Post Emergency” for “Pre-Emergence”

[9] = test system: Digitaria sanguinalis (DIGSA); experiment: as above; settings: 360 h, rate 500 g/ha, evaluated 15 days after spraying, read-out: herbicidal damage DIGSA (100=total damage to plant; 0=no damage to plant)
Procedure: as §1, with “Post Emergency” for “Pre-Emergence”

[10] = test system: Echinochloa crus-galli (ECHCG); experiment: as above; settings: 360 h, rate 500 g/ha, evaluated 15 days after spraying, read-out: herbicidal damage ECHCG (100=total damage to plant; 0=no damage to plant)
Procedure: as §1, with “Post Emergency” for “Pre-Emergence”

Lolium perenne (LOLPE) [11] = experiment: as above; settings: 360 h, rate 500 g/ha, evaluated 15 days after spraying, read-out: herbicidal damage LOLPE (100=total damage to plant; 0=no damage to plant)
Procedure: as §1, with “Post Emergency” for “Pre-Emergence”

Setaria faberi (SETFA) [12] = experiment: as above; settings: 360 h, rate 500 g/ha, evaluated 15 days after spraying, read-out: herbicidal damage SETFA (100=total damage to plant; 0=no damage to plant)
Procedure: as §1, with “Post Emergency” for “Pre-Emergence”

Compound	pest or weed control at 500 g/ha [1]	pest or weed control at 500 g/ha (Avena fatua (AVEFA) [2])	pest or weed control at 500 g/ha [3]	pest or weed control at 500 g/ha [4]	pest or weed control at 500 g/ha (Lolium perenne (LOLPE) [5])	pest or weed control at 500 g/ha (Setaria faberi (SETFA) [6])	pest or weed control at 500 g/ha [7]	pest or weed control at 500 g/ha (Avena fatua (AVEFA) [8])	pest or weed control at 500 g/ha [9]	pest or weed control at 500 g/ha [10]	pest or weed control at 500 g/ha (Lolium perenne (LOLPE) [11])	pest or weed control at 500 g/ha (Setaria faberi (SETFA) [12])
Cc1ccc(-c2ccc(Cl)cc2)cc1C1=C(O)CC(CC2CCOC2)CC1=O (stereo not drawn) [Compound A-2]	20%	40%	50%	100%	10%	60%	70%	40%	90%	100%	50%	90%
CCc1cc(C)cc(CC)c1C1=C(O)CC(CC2CCOC2)CC1=O (stereo not drawn) [Compound A-3]	80%	90%	100%	100%	100%	100%	80%	80%	100%	100%	80%	80%
CCc1ccc(-c2ccc(Cl)cc2)cc1C1=C(O)CC(CC2CCOC2)CC1=O (stereo not drawn) [Compound A-4]	60%	40%	70%	100%	30%	80%	80%	70%	100%	100%	70%	100%
CCc1cc(C)cc(CC)c1C1=C(O)CC(CC2CCOCC2)CC1=O (stereo not drawn) [Compound A-5, 2-(2,6-diethyl-4-methylphenyl)-5-(tetrahydropyran-4-ylmethyl)cyclohexane-1,3-dione]	100%	100%	100%	100%	100%	100%	90%	90%	90%	100%	90%	100%
CCc1cc(C)cc(CC)c1C1=C(O)CC(CC2OCCO2)CC1=O (stereo not drawn) [Compound A-6, 2-(2,6-diethyl-4-methylphenyl)-5-([1,3]dioxolan-2-ylmethyl)cyclohexane-1,3-dione]	90%	60%	100%	100%	70%	80%	80%	100%	90%	100%	80%	80%
CCc1cc(C)cc(CC)c1C1=C(O)CC(CC2OCCCO2)CC1=O (stereo not drawn) [Compound A-7]	100%	100%	100%	100%	100%	80%	90%	100%	80%	100%	90%	80%
